According to patent US11999702B1, “4,5-bis(4-chlorophenyl)-1-hexyl-2-(3,4-dimethoxyphenyl)-1H-imidazole as an antimicrobial compound” (KING FAISAL UNIVERSITY, priority 2023, dated 2024):

Legend:
Type in all cases: cell-based
Conditions in all cases: after 10, 20, 40 and 60 minutes at all dilutions 1:100, 1:200, 1:400, 1:800
Staphylococcus aureus = test: Antimicrobial testing by agar dilution, Staphylococcus aureus
Procedure: (§1) The antimicrobial properties of the 4,5-bis(4-chlorophenyl)-1-hexyl-2-(3,4-dimethoxyphenyl)-1H-imidazole (5) were studied by the method of agar dilution. Test solutions of each compound were prepared in concentration of 1% using dimethylformamide as a solvent then they are diluted in physiological solution to obtain the final experimental dilutions 1:100, 1:200, 1:400, 1:800. The effect of these substances were compared with furacillin in a controllable study. The testing microbes used were gram positive bacteria Staphylococcus aureus, gram negative bacteria Escherichia coli, Pseudomonas aeruginosa and Candida albicans fungi were taken. The experiments used for this survey were meat-pentonlu agar (EPA) for cultivation of bacteria and Saburo environment for fungi. Each experiment used 1 ml of test solution on each plate 500 min. Add 2 drops of emulsified with microbes feel. All experimental samples were taken from the agar after 10, 20, 40, 60 minutes in the environment on the basis of Patrk planted. Bacteria were cultivated at a temperature of 37° C. for 1 day and the mushroom was kept in a thermostat for […] at a temperature of 28° C. in the. Then results were checked.

Escherichia coli = test: Antimicrobial testing by agar dilution, Escherichia coli
Procedure: as §1

Pseudomonas aeruginosa = test: Antimicrobial testing by agar dilution, Pseudomonas aeruginosa
Procedure: as §1

Candida albicans = test: Antimicrobial testing by agar dilution, Candida albicans
Procedure: as §1

Measured: inhibition activity

CCCCCCn1c(-c2ccc(OC)c(OC)c2)nc(-c2ccc(Cl)cc2)c1-c1ccc(Cl)cc1 [4,5-bis(4-chlorophenyl)-1-hexyl-2-(3,4-dimethoxyphenyl)-1H-imidazole]
highest inhibition activity: all assays above
